Laboratory results published in PubChem BioAssay AID1259411 (Chemical Carcinogenesis Research Information System (CCRIS), 2018).
Activity calls are given as the source filed them. How the calls were made is not given here.

Test system: rodent carcinogenicity bioassays, tumor incidence
Test: CCRIS carcinogenicity studies
Summary of the method: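 Archive of carcinogenicity, mutagenicity, tumor promotion and tumor inhibition results drawn from journals, NCI reports and other sources, expert-reviewed; covers 1985-2011 and is no longer updated.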

With `Nc1nnc(-c2ccc([N+](=O)[O-])o2)s1` the carcinogen call (Species: RAT, Route: ORAL, Tumor Site: Type of Lesion: MAMMARY GLAND) was “active; positive”.

For `NNC(N)=S`, the carcinogen call (Species: MOUSE, Strain/Sex: SWISS/FEMALE, Route: ORAL, Dose: 0, 156, 312 PPM IN DRINKING WATER DAILY FOR LIFE (STUDY DURATION: 130-140 WK), Dose: 0, 156, 312 PPM IN DRINKING WATER DAILY FOR LIFE (STUDY DURATION: 130-140 WK)) was “inactive; negative” and the carcinogen call (Species: MOUSE, Strain/Sex: SWISS/MALE, Route: ORAL, Dose: 0, 156, 312 PPM IN DRINKING WATER DAILY FOR LIFE (STUDY DURATION: 130-140 WK), Dose: 0, 156, 312 PPM IN DRINKING WATER DAILY FOR LIFE (STUDY DURATION: 130-140 WK)) was “inactive; negative”.

In the case of `O=[N+]([O-])c1cc2c3c(ccc2c2ccccc12)[C@H](O)[C@@H](O)C=C3`, the carcinogen call (Species: MOUSE, Strain/Sex: SWISS/FEMALE, Route: INTRAPERITONEAL, Dose: 0, 100 NMOL (TOTAL DOSE) 1/7, 2/7 AND 4/7 ADMINISTERED ON DAYS 1, 8 AND 15 OF LIFE RESPECTIVELY (STUDY DURATION: 32 WK), Tumor Site: Type of Lesion: LUNG: TUMOR) is reported as “active; positive” and the carcinogen call (Species: MOUSE, Strain/Sex: SWISS/MALE, Route: INTRAPERITONEAL, Dose: 0, 100 NMOL (TOTAL DOSE) 1/7, 2/7 AND 4/7 ADMINISTERED ON DAYS 1, 8 AND 15 OF LIFE RESPECTIVELY (STUDY DURATION: 32 WK), Tumor Site: Type of Lesion: LUNG: TUMOR, LIVER: TUMOR) is reported as “active; positive”.

For `CC(C)(C)c1cc([N+](=O)[O-])cc([N+](=O)[O-])c1OS(C)(=O)=O`, the carcinogen call (Species: RAT, Strain/Sex: SPRAGUE-DAWLEY/FEMALE, Route: ORAL, Dose: 0, 25, 100, 400 PPM IN DIET FOR 1 YR (STUDY DURATION: 1 YR), Dose: 0, 25, 100, 400 PPM IN DIET FOR 1 YR (STUDY DURATION: 1 YR)) was “inactive; negative” and the carcinogen call (Species: RAT, Strain/Sex: SPRAGUE-DAWLEY/MALE, Route: ORAL, Dose: 0, 25, 100, 400 PPM IN DIET FOR 1 YR (STUDY DURATION: 1 YR), Dose: 0, 25, 100, 400 PPM IN DIET FOR 1 YR (STUDY DURATION: 1 YR)) was “inactive; negative”.

For `O=[N+]([O-])c1ccc(Oc2ccc(Cl)cc2Cl)cc1`, the carcinogen call (Species: MOUSE, Strain/Sex: B6C3F1/FEMALE, Route: ORAL, Dose: 0, 2348, 4696 PPM IN DIET, TWA, Dose: 0, 2348, 4696 PPM IN DIET, TWA, Tumor Site: Type of Lesion: LIVER: HEPATOCELLULAR CARCINOMA OR NEOPLASTIC NODULE) was “active; positive”, the carcinogen call (Species: MOUSE, Strain/Sex: B6C3F1/FEMALE, Route: ORAL, Dose: 0, 3000, 6000 PPM IN DIET, Dose: 0, 3000, 6000 PPM IN DIET, Tumor Site: Type of Lesion: LIVER: HEPATOCELLULAR ADENOMA OR CARCINOMA) was “active; positive” and the carcinogen call (Species: MOUSE, Strain/Sex: B6C3F1/MALE, Route: ORAL, Dose: 0, 2348, 4696 PPM IN DIET, TWA, Dose: 0, 2348, 4696 PPM IN DIET, TWA, Tumor Site: Type of Lesion: LIVER: HEPATOCELLULAR CARCINOMA) was “active; positive”. For the same molecule, the carcinogen call (Species: MOUSE, Strain/Sex: B6C3F1/MALE, Route: ORAL, Dose: 0, 3000, 6000 PPM IN DIET, Dose: 0, 3000, 6000 PPM IN DIET, Tumor Site: Type of Lesion: LIVER: HEPATOCELLULAR ADENOMA OR CARCINOMA) was “active; positive”, the carcinogen call (Species: RAT, Strain/Sex: F344/FEMALE, Route: ORAL, Dose: 0, 3000, 6000 PPM IN DIET, Dose: 0, 3000, 6000 PPM IN DIET) was “inactive; negative” and the carcinogen call (Species: RAT, Strain/Sex: F344/MALE, Route: ORAL, Dose: 0, 3000, 6000 PPM IN DIET, Dose: 0, 3000, 6000 PPM IN DIET) was “inactive; negative”. The carcinogen call (Species: RAT, Strain/Sex: OSBORNE-MENDEL/FEMALE, Route: ORAL, Dose: 0, 1300, 2600 PPM IN DIET, TWA, Dose: 0, 1300, 2600 PPM IN DIET, TWA, Tumor Site: Type of Lesion: PANCREAS: CARCINOMA) was “active; positive”.

`CCCCCCOc1cc2c(c3ccc4ccccc4c13)CCC2=O` was tested, and the carcinogen call (Species: MOUSE, Strain/Sex: TO/MALE, FEMALE, Route: DERMAL, Dose: 0, 50 UG (10 µL OF A 0.5% W/V TOLUENE SOLUTION) 2/WK FOR 70 WK (STUDY DURATION: 70 WK)) was “inactive; negative”.

With `O=[N+]([O-])c1ccc2c(c1)Cc1cc([N+](=O)[O-])ccc1-2` the carcinogen call (Species: Rat, Strain/Sex: Sprague-Dawley/Female (16/group), Route: Intraperitoneal, Dose: 10 umol/kg 3 times a wk for 4 wk (avg total dose 16.0 umol/rat), animals retained for up to 90 wk after last dosing (Tes, Tumor Site: Type of Lesion: Mammary Gland: % of rats with tumors (malignant 44, benign 38 vs 6 malignant, 53 benign in vehicle controls)) was “active; positive for malignant tumors only (p=0.02). dna adducts observed in mammary gla” and the carcinogen call (Species: Rat, Strain/Sex: Sprague-Dawley/Female (17/group), Route: Oral, Dose: 10 umol/kg 3 times a wk for 4 wk (avg total dose 18.0 umol/rat), animals retained for up to 90 wk after last dosing (Tes, Tumor Site: Type of Lesion: Mammary Gland: % of rats with tumors (malignant 29, benign 53 vs 12 malignant, 53 benign in vehicle controls)) was “inactive; negative. dna adducts observed in mammary gland dna collected 24 hr after last d”.

With `O[C@@H]1[C@H]2O[C@H]2c2c(ccc3cc4ccc5ccccc5c4nc23)[C@H]1O` the carcinogen call (Species: MOUSE, Strain/Sex: CD-1/FEMALE, Route: INTRAPERITONEAL, Dose: 0, 175 NMOL (TOTAL DOSE) ADMINISTERED AS 1/7 OF DOSE WITHIN 24 HR AFTER BIRTH, 2/7 OF DOSE AT 8 D OLD, 4/7 OF DOSE AT 15, Tumor Site: Type of Lesion: LIVER: TUMOR, LUNG: TUMOR) was “active; positive” and the carcinogen call (Species: MOUSE, Strain/Sex: CD-1/MALE, Route: INTRAPERITONEAL, Dose: 0, 175 NMOL (TOTAL DOSE) ADMINISTERED AS 1/7 OF DOSE WITHIN 24 HR AFTER BIRTH, 2/7 OF DOSE AT 8 D OLD, 4/7 OF DOSE AT 15, Tumor Site: Type of Lesion: LIVER: TUMOR, LUNG: TUMOR) was “active; positive”.

`CN(C)c1ccc(C(=C2C=CC(=[N+](C)C)C=C2)c2ccccc2)cc1` was tested, and the carcinogen call (Species: MOUSE, Strain/Sex: B6C3F1/FEMALE, Route: ORAL (DIET), Dose: 0, 100, 225, 450 PPM IN DIET FOR 2 YRS, Dose: 0, 100, 225, 450 PPM IN DIET FOR 2 YRS) was “inactive; negative” and the carcinogen call (Species: RAT, Strain/Sex: F344/N/FEMALE, Route: ORAL (DIET), Dose: 0, 100, 300, 600 PPM IN DIET FOR 2 YRS, Dose: 0, 100, 300, 600 PPM IN DIET FOR 2 YRS, Tumor Site: Type of Lesion: THYROID: FOLLICULAR CELL ADENOMA OR CARCINOMA, LIVER: HEPATOCELLULAR ADENOMA, MAMMARY GLAND: CARCINOMA, Tumor Site: Type of Lesion: THYROID: FOLLICULAR CELL ADENOMA OR CARCINOMA, LIVER: HEPATOCELLULAR ADENOMA, MAMMARY GLAND: CARCINOMA) was “equivocal; none of the tumor incidences reached statistical significance; in som”.

`OCc1ccco1` was tested, and the carcinogen call (Species: MOUSE, Strain/Sex: B6C3F1/FEMALE, Route: INHALATION, Dose: 0, 2, 8, 32 PPM 6 HR/D 5 D/WK FOR 105 WK (STUDY DURATION: 105 WK), Dose: 0, 2, 8, 32 PPM 6 HR/D 5 D/WK FOR 105 WK (STUDY DURATION: 105 WK)) was “inactive; negative”, the carcinogen call (Species: MOUSE, Strain/Sex: B6C3F1/MALE, Route: INHALATION, Dose: 0, 2, 8, 32 PPM 6 HR/D 5 D/WK FOR 105 WK (STUDY DURATION: 105 WK), Dose: 0, 2, 8, 32 PPM 6 HR/D 5 D/WK FOR 105 WK (STUDY DURATION: 105 WK), Tumor Site: Type of Lesion: KIDNEY: RENAL TUBULE ADENOMA, CARCINOMA) was “active; positive” and the carcinogen call (Species: RAT, Strain/Sex: F344/FEMALE, Route: INHALATION, Dose: 0, 2, 8, 32 PPM 6 HR/D 5 D/WK FOR 105 WK (STUDY DURATION: 105 WK), Dose: 0, 2, 8, 32 PPM 6 HR/D 5 D/WK FOR 105 WK (STUDY DURATION: 105 WK), Tumor Site: Type of Lesion: NOSE: LATERAL WALL, ADENOMA, RESPIRATORY EPITHELIUM ADENOMA, KIDNEY (RENAL TUBULE): ADENOMA, CARCINOMA, ADENOMA OR CARCI) was “equivocal”. The carcinogen call (Species: RAT, Strain/Sex: F344/MALE, Route: INHALATION, Dose: 0, 2, 8, 32 PPM 6 HR/D 5 D/WK FOR 105 WK (STUDY DURATION: 105 WK), Dose: 0, 2, 8, 32 PPM 6 HR/D 5 D/WK FOR 105 WK (STUDY DURATION: 105 WK), Tumor Site: Type of Lesion: NOSE: ADENOMA, CARCINOMA, OR SQUAMOUS CELL CARCINOMA) was “active; positive”.

`[Be]=[O]` was tested, and the carcinogen call (Species: RABBIT, Route: INTRAVENOUS, INTRAMEDULLARY, Tumor Site: Type of Lesion: BONE: OSTEOSARCOMA) was “active; positive”.
